This test concerns the target T1, human PKCθ full length enzyme (Homo sapiens, UniProt Q04759).
T1 construct: human PKCθ full length enzyme (Panvera Cat# P2996); purchased Panvera P2996
Kind of test: PKCθ IMAP assay (fluorescence polarization). It counts as biochemical. As for the experimental part:
The reaction buffer was prepared by diluting the 5× stock reaction buffer and adding DTT to obtain a concentration of 3.0 mM. […] The final concentration of compound was 2× and 10% DMSO. DMSO was added to the rest of the master mix to increase the concentration to 10%. 10 μl of the master mix containing 10% DMSO was added to the rest of the wells on the plate except the 2nd column. 20 μl was transferred from the first column to the 2nd column. The compounds were serially diluted in 2:1 ratio starting from the 2nd column. A 2× ([…]) PKCθ solution was made in the reaction buffer. 10 μl of the PKCθ solution was added to every well to achieve these final concentrations: PKCθ—1 nM; ATP—6 μM; peptide—100 nM; DMSO—5%. Samples were incubated for 25 minutes at room temperature. The binding reagent was prepared by diluting the beads in 1× binding buffer to 800:1. 50 μl of the binding reagent was added to every well and incubated for 20 minutes. FP was measured using Envision2100 (PerkinElmer Life Sciences). Wells with no ATPs and wells with no enzymes were used as controls.
(In fluorescence polarisation assays a small probe gives low polarisation when free and higher when bound to something large.)

Where [1] appears, read: human PKCθ full length enzyme, IMAP, average value, read-out: IC50 PKCθ IMAP.

Experimental findings from patent US7781591B2, “Substituted 3-cyanopyridines as protein kinase inhibitors” (Wyeth LLC, priority 2006, dated 2010) are described below.

Usually IC50 stands for the concentration that gives 50% inhibition.

The structures appear in SMILES notation. Like-named read-outs stand apart in the source and are kept apart here.

T1 sequence (Q04759 whole entry): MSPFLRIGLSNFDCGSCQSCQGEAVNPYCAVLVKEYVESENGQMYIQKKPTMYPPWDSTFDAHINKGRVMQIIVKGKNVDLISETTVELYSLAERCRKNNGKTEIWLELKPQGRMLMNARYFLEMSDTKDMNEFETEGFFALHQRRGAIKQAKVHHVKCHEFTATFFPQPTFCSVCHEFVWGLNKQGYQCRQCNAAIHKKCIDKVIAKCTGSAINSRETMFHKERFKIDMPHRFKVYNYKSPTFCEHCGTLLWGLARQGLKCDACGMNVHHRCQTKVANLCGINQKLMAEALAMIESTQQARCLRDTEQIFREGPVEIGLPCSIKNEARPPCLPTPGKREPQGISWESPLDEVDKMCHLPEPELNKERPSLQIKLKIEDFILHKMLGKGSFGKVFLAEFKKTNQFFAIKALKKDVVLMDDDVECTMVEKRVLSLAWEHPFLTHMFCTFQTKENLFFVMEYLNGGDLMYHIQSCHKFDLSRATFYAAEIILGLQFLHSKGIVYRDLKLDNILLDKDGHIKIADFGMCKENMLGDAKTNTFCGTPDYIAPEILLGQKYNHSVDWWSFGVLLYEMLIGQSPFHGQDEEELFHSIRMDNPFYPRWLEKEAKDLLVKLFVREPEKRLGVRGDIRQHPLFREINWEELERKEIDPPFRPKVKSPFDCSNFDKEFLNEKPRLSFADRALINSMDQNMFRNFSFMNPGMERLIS

Regarding `COCCNCCOc1cc(-c2cncc(C#N)c2Nc2ccc3[nH]ccc3c2)ccc1OC` [Compound 182, 4-(1H-indol-5-ylamino)-5-(4-methoxy-3-{2-[(2-methoxyethyl)amino]ethoxy}phenyl)nicotinonitrile], the IC50 under setting [1] was 120 nM.
On the same count and under the same terms, the same measure for `COc1ccc(-c2cncc(C#N)c2Nc2ccc3[nH]ccc3c2)cc1OCCNc1nnc(C)s1` [Compound 183, 4-(1H-indol-5-ylamino)-5-(4-methoxy-3-{2-[(5-methyl-1,3,4-thiadiazol-2-yl)amino]ethoxy}phenyl)nicotinonitrile]: 70 nM; for `CN1CCN(Cc2ccc(-c3cccc(-c4cncc(C#N)c4Nc4ccc5[nH]ccc5c4)c3)s2)CC1` [Compound 184, 4-(1H-indol-5-ylamino)-5-(3-{5-[(4-methylpiperazin-1-yl)methyl]-2-thienyl}phenyl)nicotinonitrile]: 260 nM; for `N#Cc1cncc(-c2cccc(-c3ccc(CN4CCOCC4)s3)c2)c1Nc1ccc2[nH]ccc2c1` [Compound 185, 4-(1H-indol-5-ylamino)-5-{3-[5-(morpholin-4-ylmethyl)-2-thienyl]phenyl}nicotinonitrile]: 500 nM.
Still for that read-out and setting: the same measure for `N#Cc1cncc(-c2cccc(-c3ccc(CN4CCCCC4)s3)c2)c1Nc1ccc2[nH]ccc2c1` [Compound 186, 4-(1H-indol-5-ylamino)-5-{3-[5-(piperidin-1-ylmethyl)-2-thienyl]phenyl}nicotinonitrile]: 140 nM; for `CN(C)Cc1ccc(-c2cccc(-c3cncc(C#N)c3Nc3ccc4[nH]ccc4c3)c2)s1` [Compound 187, 5-(3-{5-[(dimethylamino)methyl]-2-thienyl}phenyl)-4-(1H-indol-5-ylamino)nicotinonitrile]: 110 nM.
Still for that read-out and setting: as for `COc1ccc(-c2cncc(C#N)c2Nc2ccc3[nH]ccc3c2)cc1Br` [Compound 188, 5-(3-bromo-4-methoxyphenyl)-4-(1H-indol-5-ylamino)nicotinonitrile], the figure is 10 nM; as for `COc1ccc(-c2cncc(C#N)c2Nc2ccc3[nH]ccc3c2)cc1-c1cccs1` [Compound 189, 4-(1H-indol-5-ylamino)-5-[4-methoxy-3-(2-thienyl)phenyl]nicotinonitrile], 30 nM; as for `COc1ccc(-c2cncc(C#N)c2Nc2ccc3[nH]ccc3c2)cc1-c1ccc(Cl)cc1` [Compound 190, 5-(4′-chloro-6-methoxybiphenyl-3-yl)-4-(1H-indol-5-ylamino)nicotinonitrile], 180 nM.
Turning to `COc1ccc(-c2cncc(C#N)c2Nc2ccc3[nH]ccc3c2)cc1-c1cccc(Cl)c1` [Compound 191, 5-(3′-chloro-6-methoxybiphenyl-3-yl)-4-(1H-indol-5-ylamino)nicotinonitrile], the half-maximal inhibitory concentration (IC50) under setting [1] amounted to 320 nM.
Still for that read-out and setting: the same measure for `COc1ccc(-c2cncc(C#N)c2Nc2ccc3[nH]ccc3c2)cc1-c1ccc(C(=O)NC2CCCC2)cc1` [Compound 192, 5′-[5-cyano-4-(1H-indol-5-ylamino)pyridin-3-yl]-N-cyclopentyl-2′-methoxybiphenyl-4-carboxamide]: 280 nM; for `COc1ccc(-c2cncc(C#N)c2Nc2ccc3[nH]ccc3c2)cc1-c1ccccc1Cl` [Compound 193, 5-(2′-chloro-6-methoxybiphenyl-3-yl)-4-(1H-indol-5-ylamino)nicotinonitrile]: 250 nM; for `N#Cc1cncc(-c2ccc(OCc3ccccc3)cc2)c1Nc1ccc2[nH]ccc2c1` [Compound 195, 5-[4-(benzyloxy)phenyl]-4-(1H-indol-5-ylamino)nicotinonitrile]: 250 nM.
With `CNC(=O)c1ccc(-c2cccc(-c3cncc(C#N)c3Nc3ccc4[nH]ccc4c3)c2)cc1` [Compound 196, 3′-[5-cyano-4-(1H-indol-5-ylamino)pyridin-3-yl]-N-methylbiphenyl-4-carboxamide], the IC50 under setting [1] is 460 nM.
On the same count and under the same terms, the same measure for `CCCCNC(=O)c1ccc(-c2cccc(-c3cncc(C#N)c3Nc3ccc4[nH]ccc4c3)c2)cc1` [Compound 197, N-butyl-3′-[5-cyano-4-(1H-indol-5-ylamino)pyridin-3-yl]biphenyl-4-carboxamide]: 190 nM; for `CCC(CC)NC(=O)c1ccc(-c2cccc(-c3cncc(C#N)c3Nc3ccc4[nH]ccc4c3)c2)cc1` [Compound 198, 3′-[5-cyano-4-(1H-indol-5-ylamino)pyridin-3-yl]-N-(1-ethylpropyl)biphenyl-4-carboxamide]: 330 nM.
Same read-out and setting: as for `N#Cc1cncc(-c2cccc(-c3ccc(C(=O)NCCO)cc3)c2)c1Nc1ccc2[nH]ccc2c1` [Compound 199, 3′-[5-cyano-4-(1H-indol-5-ylamino)pyridin-3-yl]-N-(2-hydroxyethyl)biphenyl-4-carboxamide], the figure is 1300 nM; as for `COCCNC(=O)c1ccc(-c2cccc(-c3cncc(C#N)c3Nc3ccc4[nH]ccc4c3)c2)cc1` [Compound 200, 3′-[5-cyano-4-(1H-indol-5-ylamino)pyridin-3-yl]-N-(2-methoxyethyl)biphenyl-4-carboxamide], 190 nM.
`N#Cc1cncc(-c2cccc(-c3ccc(C(=O)NC4CC4)cc3)c2)c1Nc1ccc2[nH]ccc2c1` [Compound 201, 3′-[5-cyano-4-(1H-indol-5-ylamino)pyridin-3-yl]-N-cyclopropylbiphenyl-4-carboxamide]: the IC50 under setting [1] turned out to be 300 nM.
Take `N#Cc1cncc(-c2cccc(-c3ccc(C(=O)NC4CCCCC4)cc3)c2)c1Nc1ccc2[nH]ccc2c1` [Compound 202, 3′-[5-cyano-4-(1H-indol-5-ylamino)pyridin-3-yl]-N-cyclohexylbiphenyl-4-carboxamide]: the IC50 under setting [1] is 340 nM.
`N#Cc1cncc(-c2cccc(-c3ccc(C(=O)NCCN4CCCC4)cc3)c2)c1Nc1ccc2[nH]ccc2c1` [Compound 203, 3′-[5-cyano-4-(1H-indol-5-ylamino)pyridin-3-yl]-N-(2-pyrrolidin-1-ylethyl)biphenyl-4-carboxamide]: the IC50 under setting [1] was 290 nM.
Same read-out and setting: the same measure for `N#Cc1cncc(-c2cccc(-c3ccc(C(=O)N4CCCC4)cc3)c2)c1Nc1ccc2[nH]ccc2c1` [Compound 205, 4-(1H-indol-5-ylamino)-5-[4′-(pyrrolidin-1-ylcarbonyl)biphenyl-3-yl]nicotinonitrile]: 510 nM; for `N#Cc1cncc(-c2cccc(-c3ccc(C(=O)NCCCCO)cc3)c2)c1Nc1ccc2[nH]ccc2c1` [Compound 209, 3′-[5-cyano-4-(1H-indol-5-ylamino)pyridin-3-yl]-N-(4-hydroxybutyl)biphenyl-4-carboxamide]: 280 nM; for `N#Cc1cncc(-c2cccc(-c3ccc(C(=O)NCCCO)cc3)c2)c1Nc1ccc2[nH]ccc2c1` [Compound 210, 3′-[5-cyano-4-(1H-indol-5-ylamino)pyridin-3-yl]-N-(3-hydroxypropyl)biphenyl-4-carboxamide]: 2580 nM.
Still for that read-out and setting: as for `CNCCNC(=O)c1ccc(-c2cccc(-c3cncc(C#N)c3Nc3ccc4[nH]ccc4c3)c2)cc1` [Compound 211, 3′-[5-cyano-4-(1H-indol-5-ylamino)pyridin-3-yl]-N-[2-(methylamino)ethyl]biphenyl-4-carboxamide], the figure is 330 nM.
In the case of `N#Cc1cncc(-c2cccc(-c3ccc(C(=O)NCc4ccccn4)cc3)c2)c1Nc1ccc2[nH]ccc2c1` [Compound 212, 3′-[5-cyano-4-(1H-indol-5-ylamino)pyridin-3-yl]-N-(pyridin-2-ylmethyl)biphenyl-4-carboxamide], the IC50 under setting [1] worked out at 590 nM.
The same measure, in the same setting: as for `N#Cc1cncc(-c2cccc(-c3ccc(C(=O)NCc4cccnc4)cc3)c2)c1Nc1ccc2[nH]ccc2c1` [Compound 213, 3′-[5-cyano-4-(1H-indol-5-ylamino)pyridin-3-yl]-N-(pyridin-3-ylmethyl)biphenyl-4-carboxamide], the figure is 270 nM; as for `N#Cc1cncc(-c2cccc(-c3ccc(C(=O)NCc4ccncc4)cc3)c2)c1Nc1ccc2[nH]ccc2c1` [Compound 214, 3′-[5-cyano-4-(1H-indol-5-ylamino)pyridin-3-yl]-N-(pyridin-4-ylmethyl)biphenyl-4-carboxamide], 250 nM; as for `CCCCNC(=O)c1ccc(-c2cccc(-c3cncc(C#N)c3Nc3cccc4[nH]ccc34)c2)cc1` [Compound 215, N-butyl-3′-[5-cyano-4-(1H-indol-4-ylamino)pyridin-3-yl]biphenyl-4-carboxamide], 60 nM.
In the case of `N#Cc1cncc(-c2cccc(-c3ccc(C(=O)NCCO)cc3)c2)c1Nc1cccc2[nH]ccc12` [Compound 216, 3′-[5-cyano-4-(1H-indol-4-ylamino)pyridin-3-yl]-N-(2-hydroxyethyl)biphenyl-4-carboxamide], the IC50 under setting [1] came out at 50 nM.
As to `COc1ccc(-c2cncc(C#N)c2Nc2ccc3[nH]ccc3c2C)cc1OC` [Compound 218, 5-(3,4-dimethoxyphenyl)-4-[(4-methyl-1H-indol-5-yl)amino]nicotinonitrile], under setting [1], the IC50 turned out to be 6 nM.
Consider `COc1ccc(-c2cncc(C#N)c2N(C)c2ccc3[nH]ccc3c2)cc1OC` [Compound 219, 5-(3,4-dimethoxyphenyl)-4-[1H-indol-5-yl(methyl)amino]nicotinonitrile], for which the half-maximal inhibitory concentration (IC50) under setting [1] worked out at 270 nM.
As to `COc1ccc(-c2cncc(C#N)c2-c2ccc3[nH]ccc3c2)cc1OC` [Compound 221, 5-(3,4-dimethoxyphenyl)-4-(1H-indol-5-yl)nicotinonitrile], the IC50 stood at 1750 nM.
With `Cc1c(Nc2c(C#N)cncc2-c2cc3ccccc3o2)ccc2[nH]ccc12` [Compound 222, 5-(1-benzofuran-2-yl)-4-[(4-methyl-1H-indol-5-yl)amino]nicotinonitrile], under setting [1], the IC50 was 1 nM.
